Results taken from patent publication US10774049B2, “PU.1 inhibitors” (Albert Einstein College of Medicine, priority 2016, dated 2020).

Tests used:
[1] = tested on: PU.1 URE−/− AML cell line; assay: Cell viability/growth of PU.1 URE−/− AML cells; format: cell-based, murine; conditions: Mus musculus; read-out: IC50 URE−/−
Method: (§1) FIG. 2A-2F. PU.1 inhibition decreases cell growth and increases apoptosis of PU.1^1″ leukemic cells. (A) Chemical structures of heterocyclic diamidines DB1976, DB2115 and DB2313 used in this study. (B) Relative cell viability of URE−/− cells and BAF3 cells after treatment with increasing concentrations of vehicle or small molecules. Cell viability was assessed after 48 h. Data represent means of technical triplicate from one representative experiment; fold change compared to Vehicle is shown. (C) Cell proliferation assay of URE−/− after treatment with DB1976 (n=5), DB2115 (n=3), DB2313 (n=3), of MOLM13 cells (n=3), and THP1 cells (n=3). Cell counting was performed every 24 h during 4 days. Data represent means±SD of technical triplicate from one representative experiment. Forward strand: SEQ ID NO:3, and Reverse strand: SEQ ID NO:4; derived from the λB motif from the murine Ig lambda 2-4 enhancer, a known native PU.1-dependent gene and specific binding site for PU.1. (D) Clonogenic capacities of URE−/− cells after treatment with DB1976 (n=5), DB2115 (n=3) and DB2313 (n=4) in the first plating, and after serial replatings (n=3). Data represent means±SD of technical triplicate from one representative experiment. (E) Apoptotic cells (Annexin-V+Dapi−) fraction in URE−/− cells after 48 h of treatment with DB1976 (n=6), DB2115 (n=6) and DB2313 (n=3). Data represent the means±SD of independent experiments; fold change compared to Vehicle is shown. *P<0.05, **P<0.01, ***P<0.001, ****P<0.0001 (F) Dose dependent inhibitor of PU.1-dependent transactivation.
(§2) To determine if our PU.1 inhibitors have an effect on PU.1^low-induced AML cells, we treated the PU.1 URE^−/− AML cell line with compounds at different concentrations. Treatment with the drugs led to a profound decrease in growth of PU.1 URE^−/− AML cells after 48 h whereas it had only minimal or no effects on control cells with normal PU.1 levels (BaF3), even at very high doses (FIG. 3A). […] Similar to our observations with PU.1-directed shRNAs, treatment with pharmacological PU.1 inhibitors led to a significant 1.6-, 2- and 3.5-fold increase of apoptotic cells with DB1976, DB2115 and DB2313, respectively, in murine PU.1 URE^−/− AML cells (FIG. 3C), and similar effects in human MOLM13 cells.

BaF3 cells = assay: Cell viability of BaF3 control cells; format: cell-based, murine; conditions: Mus musculus, NR = Not Reached
Method: as §1, §2

Structure (SMILES)	IC50 [1] [µM]	IC50 (BaF3 cells) [µM]
N=C(N)c1ccc2nc(-c3ccc(OCCOCCOc4ccc(-c5nc6ccc(C(=N)N)cc6[nH]5)cc4)cc3)[nH]c2c1 [DB2146]	5	68
CN(CCOc1ccc(-c2nc3ccc(C(=N)N)cc3[nH]2)cc1)CCOc1ccc(-c2nc3ccc(C(=N)N)cc3[nH]2)cc1 [DB2150]	20	416
Cn1c(-c2ccc(OCCCOc3ccc(-c4nc5cc(C(=N)N)ccc5n4C)cc3)cc2)nc2cc(C(=N)N)ccc21 [DB2237]	4.4	–
CC(C)NC(=N)c1ccc2nc(-c3ccc(OCCOCCOc4ccc(-c5nc6ccc(C(=N)NC(C)C)cc6[nH]5)cc4)cc3)[nH]c2c1 [DB2295]	10.5	–
CC(C)NC(=N)c1ccc2nc(-c3ccc(OCc4cccc(COc5ccc(-c6nc7ccc(C(=N)NC(C)C)cc7[nH]6)cc5)n4)cc3)[nH]c2c1 [DB2302]	7.8	–
Cn1c(-c2ccc(OCc3cccc(COc4ccc(-c5nc6cc(C(=N)N)ccc6n5C)cc4)n3)cc2)nc2cc(C(=N)N)ccc21 [DB2326]	1.9	48
N=C(N)c1ccc2nc(-c3ccc(OCC(F)(F)C(F)(F)C(F)(F)COc4ccc(-c5nc6ccc(C(=N)N)cc6[nH]5)cc4)cc3)[nH]c2c1 [DB2355]	1.7	49
Cn1c(-c2ccc(-c3ccc(C(=N)N)cc3)s2)nc2cc(-c3ccc(C(=N)N)cc3)ccc21 [DB2457]	16.5	–
N=C(N)c1ccc2nc(-c3ccc(Oc4ccc(Oc5ccc(-c6nc7ccc(C(=N)N)cc7[nH]6)cc5)cc4)cc3)[nH]c2c1 [DB2483]	5.3	–
N=C(N)c1ccc2nc(-c3ccc(OCC(F)(F)C(F)(F)Oc4ccc(-c5nc6ccc(C(=N)N)cc6[nH]5)cc4)cc3)[nH]c2c1 [DB2514]	5.6	44.5
